For one assay, the system named is 26S proteasome. Put plainly: Proteasome subcellular localization in cultured cells (immunofluorescence, cell fractionation/Western blot). Format: cell-based, human. As to conditions: for proteasome translocation from the nucleus to the cytosol: amino acid starvation, substance added to starvation medium; for proteasome localization: non-stressed / well-fed cells, complete medium; for proteasome dynamics under known p38 activators: RT4 and HeLa cells. Here is the method:
Cells were incubated for 20 min in fractionation buffer [20 mM HEPES pH 7.3, 10 mM KCl, 5 mM ATP, 5 mM MgCl2, and protease inhibitor cocktail (Roche)], followed by the addition of Digitonin (0.01%). They were then mixed thoroughly and centrifuged at 1,000×g for 5 min. The supernatant was collected as cytosolic fraction, and the pellet was washed with fractionation buffer supplemented with NP-40 (0.05%) and centrifuged, and the pellet (nuclei) was resuspended in fractionation buffer supplemented with sodium deoxycholate (0.5%), followed by its sonication.
(§1) Cells were washed twice with ice cold PBS and scraped into lysis buffer (50 mM Tris-HCl, pH 7.4, 130 mM NaCl, 0.5% NP-40) supplemented with freshly added protease inhibitor cocktail, 5 mM ATP, 10 mM iodoacetamide, and 5 mM N-ethyl maleimide. Protein concentration was measured by the BCA assay according to the manufacturer's instructions (Pierce, Rockford, IL). 30 μg of cellular protein were resolved via SDS-PAGE, transferred to a nitrocellulose membrane and immunoblotted with the appropriate antibody.
Cells were seeded on glass cover slips for 36 h. Following the indicated treatments, they were fixed with 4% PFA for 15 min, washed with phosphate-buffered saline (PBS) and incubated in PBS containing 10% goat serum for 1 h at room temperature, followed by 2 h incubation with the indicated primary antibody. Following extensive wash with PBS, the fixed cells were incubated with the relevant secondary antibody for 1 h, washed and mounted. Images were acquired using Zeiss LSM 700 confocal microscope (Zeiss, Oberkochen, Germany). […]
In general terms: A western blot detects proteins with antibodies after separation by electrophoresis.

The subject of the next assay is STAT3. Briefly: Western blot for STAT3 phosphorylated at Tyr705. The class given is cell-based, human. Conditions: Torin1 treatment. On the procedure: as §1
For the next assay, the system named is HeLa cells. Briefly: Amino acids level measurement (LC-MS). As to conditions: Torin1 treatment relative to control. The class given is cell-based, human. Here is the method: Metabolic analysis was carried out as previously described [G. M. MacKay et al., 1st Ed. (Elsevier Inc., 2015)]. Briefly, cells were rapidly washed 3 times with ice-cold PBS and extracted with an aqueous solution of 50% Methanol, and 30% Acetonitrile. Samples were centrifuged at 16,000×g for 10 min at 4° C., and the supernatants were analyzed using HPLC-MS (Q-Exactive Orbitrap Mass Spectrometer (Thermo Scientific) coupled to Thermo Scientific UltiMate 3000 HPLC system). The HPLC setup consisted of a ZIC-PHILIC column (SeQuant, 150×2.1 mm, 5 μm, Merck) with a ZIC-PHILIC guard column (SeQuant, 20×2.1 mm). The aqueous mobile phase solvent was 20 mM ammonium carbonate adjusted to pH 9.4 with 0.1% ammonium hydroxide. The organic mobile phase was acetonitrile. Amino acids and other metabolites were separated over a 15 min linear gradient from 80% organic to 80% aqueous. The column temperature was 45° C., the flow rate 200 μl/min, and the run time 27 min. All metabolites were detected across a mass range of 75-1,000 m/z using the Q-Exactive mass spectrometer at a resolution of 35,000 (at 200 m/z) with electrospray ionization and polarity switching mode. Mass accuracy obtained for all metabolites was below 5 ppm. Data were acquired with Thermo Xcalibur software. The peak areas of different amino acids were determined using Thermo TraceFinder software through which metabolites were identified by the exact mass of the singly charged ion and the known retention time on the HPLC column. Commercially available standard compounds had been analyzed before to determine ion masses and retention times on the ZIC-PHILIC column. Protein quantitation based on the Lowry method was performed for normalization. The figure presents mean+/−SD of three replicates.

A further assay relates to HeLa and RT4 cells. Briefly: Cell survival assay (live/dead imaging). The class given is cell-based. On the procedure: Data analysis was performed using the Live/Dead module of the MetaXpress software (Molecular Devices). […] Intensities were quantified using Li-Cor imager and software (Odyssey).

Consider `N[C@@H](Cc1ccccc1)C(=O)O` [Phe, Phenylalanine], for which the “proteasome translocation from the nucleus to the cytosol” value (shortened to “proteasome translocation”) in the assay on 26S proteasome is on record as “inhibitory effect on proteasome translocation”.
The same measure, in the same setting: next, `O=[N+]([O-])c1ccc2c(c1)S(=O)(=O)C=C2` [Stattic]: “prevented proteasome translocation from the nucleus to the cytosol”.
Take `CCC(=O)N1CCN(c2ccc(-n3c(=O)ccc4cnc5ccc(-c6cnc7ccccc7c6)cc5c43)cc2C(F)(F)F)CC1` [Torin1]: in the assay on STAT3, the “STAT3 Y705 phosphorylation” value was “upregulation of Y705 phosphorylation”. In addition, the proteasome localization result with 26S proteasome was “induced nuclear export of both 20S and 19S sub-complexes”. Also, the “level of amino acids” value with HeLa cells is listed as “gain in amino acids”.
Turning to `N[C@@H](Cc1c[nH]c2ccccc12)C(=O)O` [Trp, Tryptophan], in the assay with 26S proteasome, the “proteasome translocation” value is on record as “inhibitory effect on proteasome translocation”.
For the molecule `N[C@@H](Cc1ccc(O)cc1)C(=O)O` [Tyr, 4-hydroxyphenylalanine], the “proteasome translocation” value in the assay with 26S proteasome is listed as “inhibitory effect on proteasome translocation”.
For the molecule `COc1ccc(C[C@H]2NC[C@H](O)[C@H]2OC(C)=O)cc1` [anisomycin], in the assay with HeLa and RT4 cells, the “cell death under known p38 activators” value is on record as “many of the cells died”. The “proteasome dynamics under known p38 activators” value in the assay on 26S proteasome was “the proteasome was locked in the nucleus”.
On to `C[C@@H]1C[C@@H]([C@H](O)CC2CC(=O)NC(=O)C2)C(=O)[C@@H](C)C1` [cycloheximide], for which, in the assay with 26S proteasome (replenishment of amino acids after starvation, in presence of substance), the “restoration of the nuclear proteasomal pool” value is “did not prevent restoration of the nuclear proteasomal pool”.
In the case of `OC[C@@H](O)[C@@H](O)[C@H](O)[C@@H](O)CO` [hyperosmotic stress, Sorbitol], the “cell death under known p38 activators” value in the assay with HeLa and RT4 cells is listed as “many of the cells died”. For the same molecule, in the assay on 26S proteasome, the “proteasome dynamics under known p38 activators” value is listed as “the proteasome was locked in the nucleus”.
Turning to Ivermectin, the proteasome localization result in the assay on 26S proteasome is recorded as “cytosolic accumulation”.

The record behind these values is patent US20250325508A1, “MODULATORS OF PROTEASOME DYNAMICS AND/OR FUNCTION, COMPOSITIONS, METHODS, AND THERAPEUTIC USES THEREOF” (TECHNION RESEARCH & DEVELOPMENT FOUNDATION LIMITED, priority 2022, published 2025).
